# The OPERA property sets (Mansouri et al. 2018)
Structure (SMILES),log10 vapour pressure (mmHg),melting point,boiling point,ready biodegradability,log10 Koc (L/kg),log10 Henry constant (atm·m³/mol),log10 Koa,log10 biodegradation half-life (days)
O=c1c(Cl)c(Cl)cnn1-c1ccccc1,-4.05,162 °C,–,–,–,–,–,–
C1CSCCN1,–,–,175 °C,–,–,–,–,–
OCCN(CCO)c1nc(N2CCCCC2)c2nc(N(CCO)CCO)ncc2n1,–,158 °C,–,–,–,–,–,–
O=C1C=CC(=Nc2ccc(O)cc2)C=C1,–,160 °C,–,–,–,–,–,–
CC(=O)OCC(=O)[C@H]1CC[C@H]2[C@@H]3CC[C@H]4C[C@H](O)CC[C@]4(C)[C@H]3C(=O)C[C@]12C,–,176 °C,–,–,–,–,–,–
NC(=O)c1ccc(O)cc1,–,162 °C,–,–,–,–,–,–
CCC(C)SC(C)CC (configuration not stated),–,–,165 °C,–,–,–,–,–
CCCCOCCOP(=O)(OCCOCCCC)OCCOCCCC,–,-70 °C,–,not readily biodegradable,–,–,–,–
CCCCCCCC/C=C\CCCCCCCC(=O)O,-5.85,–,360 °C,readily biodegradable,–,–,–,–
NS(=O)(=O)c1ccc(CCCO)cc1,–,95.5 °C,–,–,–,–,–,–
NC(=O)c1ccccc1Br,–,160 °C,–,–,–,–,–,–
O=C[C@H](O)[C@H](O)[C@H](O)CO,–,98.5 °C,–,–,–,–,–,–
CC1=CC(=O)c2ccccc2C1=O,–,107 °C,–,–,–,–,–,–
Oc1cc(O)c2c(c1)O[C@H](c1ccc(O)c(O)c1)[C@@H](O)C2,–,–,–,–,2.03,–,–,–
CCCCCCCCCCCCC1CCCCC1,–,12.5 °C,331 °C,–,–,–,–,–
CCC(C)OC(=O)CC(C)=O (configuration not stated),–,–,–,readily biodegradable,–,–,–,–
O=S(=O)(O)CCN1CCN(CCS(=O)(=O)O)CC1,–,–,–,not readily biodegradable,–,–,–,–
CC(C)(C)c1cccc(C(C)(C)C)c1O,–,39 °C,253 °C,not readily biodegradable,–,–,–,–
CCCCCCCCC(N)=O,–,99.5 °C,–,–,–,–,–,–
CCc1cc(C)cc(CC)c1,0.0017,-74.1 °C,205 °C,–,–,–,–,–
CCC(C)(C)CO,–,–,136 °C,–,–,–,–,–
C=CC(=O)OCC,1.59,-71.2 °C,99.4 °C,readily biodegradable,–,–,–,–

Structure (SMILES),log10 vapour pressure (mmHg),melting point,boiling point,ready biodegradability,log10 Koc (L/kg),log10 Henry constant (atm·m³/mol),log10 Koa,log10 biodegradation half-life (days)
c1ccc(OP(Oc2ccccc2)Oc2ccccc2)cc1,–,25 °C,360 °C,–,–,–,–,–
O=C(O)Cc1ccc([N+](=O)[O-])cc1,–,154 °C,–,–,–,–,–,–
CCOP(=S)(OCC)SCn1nnc2ccccc2c1=O,–,53 °C,–,–,–,–,–,–
COc1ccccc1C1CCCCC1,–,–,268 °C,–,–,–,–,–
N#Cc1c(F)c(F)c(C#N)c(F)c1F,–,198 °C,–,–,–,–,–,–
Nc1ccc(Cl)cc1Cl,–,63.5 °C,245 °C,not readily biodegradable,2.72,–,–,–
Fc1cccc(F)c1,1.92,-69 °C,82.6 °C,–,–,–,–,–
Ic1cn[nH]c1,–,109 °C,–,–,–,–,–,–
CC1=CCC2CC1C2(C)C (racemic),–,-60.5 °C,156 °C,–,–,–,–,–
CC(=O)OCCCl,–,–,145 °C,–,–,–,–,–
O=C([O-])CF.[Na+],–,201 °C,–,–,–,–,–,–
O=C1CCCC1,1.06,-51.3 °C,130 °C,–,–,-5,3.67,–
CC(=O)O[C@]1(C(C)=O)CC[C@H]2[C@@H]3C[C@H](C)C4=CC(=O)CC[C@]4(C)[C@H]3CC[C@@]21C,–,206 °C,–,–,–,–,–,–
c1cc[n+]2c(c1)-c1cccc[n+]1CC2,-8,–,–,–,2.7,–,–,–
O=C1CN=C(c2ccccc2Cl)c2cc([N+](=O)[O-])ccc2N1,–,238 °C,–,–,–,–,–,–
CC(C)c1ccc(Cl)cc1,–,-12.3 °C,198 °C,–,–,–,–,–
CCCCCCCCCCCCCCCCOC(C)=O,–,-18.5 °C,–,–,–,–,–,–
CCCCNC(=O)n1c(NC(=O)OC)nc2ccccc21,-8.43,–,–,–,2.71,-11.3,–,–
C[C@@H]1C[C@H]2[C@@H]3CCC4=CC(=O)C=C[C@]4(C)[C@@]3(F)[C@@H](O)C[C@]2(C)[C@H]1C(=O)CO,–,217 °C,–,–,–,–,–,–
Brc1ccc(Br)s1,–,-6 °C,210 °C,–,–,–,–,–
Sc1ccc(Cl)cc1,–,61 °C,206 °C,–,–,–,–,–
O=c1c(O)c(-c2ccc(O)c(O)c2)oc2cc(O[C@@H]3O[C@H](CO)[C@@H](O)[C@H](O)[C@H]3O)cc(O)c12,–,248 °C,–,–,–,–,–,–

Structure (SMILES),log10 vapour pressure (mmHg),melting point,boiling point,ready biodegradability,log10 Koc (L/kg),log10 Henry constant (atm·m³/mol),log10 Koa,log10 biodegradation half-life (days)
Cc1ccn2nc(S(=O)(=O)Nc3c(F)cccc3F)nc2n1,-11.6,252 °C,–,–,1.45,–,–,–
Nc1ncnc2c1ncn2[C@@H]1O[C@H](CO)C[C@H]1O,–,226 °C,–,–,–,–,–,–
COC(=O)/C=C/C(C)=C\C=C\C(C)=C\C=C\C=C(C)\C=C\C=C(C)\C=C\C(=O)O,–,198 °C,–,–,–,–,–,–
COC(=O)c1ccccc1OC(C)=O,–,51.5 °C,–,–,–,–,–,–
Brc1c2ccccc2c(Br)c2ccccc12,–,226 °C,–,–,–,–,–,–
ClCC(Cl)=C(Cl)Cl,0.428,–,167 °C,–,–,–,–,–
C=C(C)c1ccc(Cl)cc1,–,–,–,not readily biodegradable,–,–,–,–
CCC(CC)CCl,–,–,126 °C,–,–,–,–,–
Nc1ccc(S(=O)(=O)Nc2ccccc2)cc1,–,200 °C,–,–,–,–,–,–
c1ccc2c(c1)CCC2,0.166,-51.4 °C,178 °C,–,–,-3.7,–,0.778
CC(=O)Oc1ccc(C)cc1,–,–,212 °C,–,–,–,–,–
Cc1cc(Cl)n(C)n1,–,–,158 °C,–,–,–,–,–
Cc1cc(C)c(C(=O)O)cc1C,–,152 °C,–,–,–,–,–,–
O=C(Cl)C1CCCCC1,–,–,180 °C,–,–,–,–,–
COC1=C[C@@H](C)[C@@H]2C[C@H]3OC(=O)C[C@H]4C(C)=C(OC)C(=O)[C@H]([C@@]2(C)C1=O)[C@@]34C,–,222 °C,–,–,–,–,–,–
O=[N+]([O-])c1ccc2c3c(cccc13)CC2,–,100 °C,–,–,–,–,–,–
CC(C)(Oc1ccccc1)C(=O)O,–,98.5 °C,–,–,–,–,–,–
CN1CCc2c(c3ccccc3n2Cc2ccccc2)C1,–,95 °C,–,–,–,–,–,–
OCc1cccc2ccccc12,–,64 °C,304 °C,–,2.17,–,–,–
CC(C)=C1CCC(C)CC1 (configuration not stated),–,–,173 °C,–,–,–,–,–
